For 32 compounds, IC50 results are on record in US20250115558A1, “PYRIDAZINE DERIVATIVES AND RELATED USES” (NodThera Limited, priority 2023, published 2025).

Structures can show the parent of a compound that is named as a salt.

One assay deals with THP-1. Kind of assay: THP-1 IC50 assay. Format: cell-based. The following applies: Homo sapiens; THP-1 cells.
The subject of assay [1] is IL-1β release upon NLRP3 activation in peripheral blood mononuclear cells (PBMC). Briefly: PBMC IC50 Determination Assay. Format: cell-based. The following applies: Homo sapiens; inhibition of IL-1β release; LPS-primed PBMC stimulated with ATP or nigericin. Here is the method:
The compounds of the present disclosure were tested for their inhibitory activity against IL-1β release upon NLRP3 activation in peripheral blood mononuclear cells (PBMC).
Protocol A. PBMC were isolated from buffy coats by density gradient centrifugation on Histopaque-1077 (Sigma, cat no. 10771). Isolated cells were seeded into the wells of a 96-well plate and incubated for 3 h with lipopolysaccharide (LPS). Following medium exchange, the compounds of the present disclosure were added (a single compound per well) and the cells were incubated for 30 min. Next, the cells were stimulated either with ATP (5 mM) or nigericin (10 μM) for 1 h and the cell culture media from the wells were collected for further analysis.
The release of IL-1β into the media was determined by a quantitative detection of IL-1β in the media using an IL-1β enzyme-linked immunosorbent assay (ELISA) Ready-SET-Go!, eBioscience cat. No. 88-7261-88. Briefly, in a first step, high affinity binding plates (Corning, Costar 9018 or NUNC Maxisorp Cat No. 44-2404) were coated overnight at 4° C. with specific capture antibody included in the kit (anti-human IL-1β ref. 14-7018-68). Subsequently, plates were blocked with blocking buffer for 1 h at room temperature (rt) and after washing with a buffer (PBS with 0.05% Tween-20) incubated with protein standard and culture media. After 2 h of incubation at rt, plates were washed and incubated with biotinylated detection antibody included in the kit (anti-human IL-1β Biotin ref. 33-7110-68) for 1 h at rt. Plates were washed and incubated with HRP-streptavidin for 30 min at rt and washed again. The signal was developed after addition of 3,3′,5,5′-tetramethylbenzidine-peroxidase (TMB) until colour appeared and the reaction was stopped by 2 M H2SO4. A microplate spectrophotometer (BioTek) was used to detect signals with 450 nm. The detection range of IL-1β ELISA was […].
Protocol B. PBMC were isolated from buffy coats by density gradient centrifugation on Histopaque-1077 (Sigma, cat no. 10771). Isolated cells were seeded into the wells (280,000 cells/well) of a 96-well plate and incubated for 3 h with lipopolysaccharide (LPS, 1 μg/mL diluted 1000× from a 1 mg/mL stock solution). The compounds of the present disclosure were added (a single compound per well) and the cells were incubated for 30 min. Next, the cells were stimulated with ATP (5 mM final concentration diluted 20× from a 100 mM stock solution) for 1 h and the cell culture media from the wells were collected for further analysis.
The release of IL-1β into the media was determined by quantitative detection of IL-1β in the media using HTRF®, CisBio cat. No. 62HIL1BPEH. Briefly, cell culture supernatant were dispensed directly into the assay plate containing antibodies labelled with the HTRF® donor and acceptor. A microplate spectrophotometer (BMG) was used to detect signals at 655 nm and 620 nm. The detection range of IL-1β HTRF® was 39-6500 μg/mL.

For `Cc1cc(C(F)(F)F)cc(O)c1-c1ccc(C2(N3CCCC3=O)CC2)nn1` [Compound 86, 1-(1-{6-[2-Hydroxy-6-methyl-4-(trifluoromethyl)phenyl]pyridazin-3-yl}cyclopropyl)pyrrolidin-2-one], the 50% inhibitory concentration (IC50) (with THP-1; in assay [1]) was 500 to 1000 nM throughout.

Take `CO[C@H]1CCN(Cc2ccc(-c3c(C)cc(Cl)cc3O)nn2)C1` [Compound 61, (S)-5-Chloro-2-(6-((3-methoxypyrrolidin-1-yl)methyl)pyridazin-3-yl)-3-methylphenol]: the IC50 (in the assay with THP-1; in assay [1]) was 1000 to 3000 nM each time.

On to `Oc1cc(C(F)(F)F)cc(C(F)(F)F)c1-c1ccc(CNC2CCOCC2)nn1` [Compound 85, 2-(6-{[(Oxan-4-yl)amino]methyl}pyridazin-3-yl)-3,5-bis(trifluoromethyl)phenol], for which the IC50 (with THP-1; in assay [1]) was 1000 to 3000 nM each time.

`Cc1cc(C(F)(F)F)cc(O)c1-c1ccc(CNC2CCC(=O)N(C)C2)nn1` (stereo not shown) [Compound 111]: the IC50 (in the assay on THP-1; in assay [1]) was under 500 nM throughout.

With `Cc1cc(C(F)(F)F)cc(O)c1-c1ccc(CNc2cccnc2)nn1` [Compound 79, 3-Methyl-2-(6-{[(pyridin-3-yl)amino]methyl}pyridazin-3-yl)-5-(trifluoromethyl)phenol], the IC50 (in the assay on THP-1; in assay [1]) was 500 to 1000 nM in each case.

On to `Oc1cc(Cl)cc(F)c1-c1ccc(CNC2CCOCC2)nn1` [Compound 69, 5-Chloro-3-fluoro-2-(6-(((tetrahydro-2H-pyran-4-yl)amino)methyl)pyridazin-3-yl)phenol hydrochloride], for which the IC50 (in the assay with THP-1; in assay [1]) was 3000 to 10000 nM in each case.

As to `Cc1cc(C(F)(F)F)cc(O)c1-c1ccc(COC2CCCNC2)nn1` (stereo not shown) [Compound 18, 3-Methyl-2-(6-((piperidin-3-yloxy)methyl)pyridazin-3-yl)-5-(trifluoromethyl)phenol], the values for the concentration for half-maximal inhibition (IC50) (with THP-1; in assay [1]) were 1000 to 3000 nM and 500 to 1000 nM, respectively.

On to `Cc1cc(Cl)cc(O)c1-c1ccc(CN[C@@H]2CCC(=O)N(C)C2)nn1` [Compound 66, (R)-5-(((6-(4-Chloro-2-hydroxy-6-methylphenyl)pyridazin-3-yl)methyl)amino)-1-methylpiperidin-2-one], for which the IC50 (usually the midpoint of a concentration-inhibition curve) is 1000 to 3000 nM in the assay with THP-1 and 500 to 1000 nM in assay [1].

Turning to `Cc1cc(C(F)(F)F)cc(O)c1-c1ccc(CN[C@@H]2CCN(C)C(=O)C2)nn1` [Compound 37, (R)-4-(((6-(2-Hydroxy-6-methyl-4-(trifluoromethyl)phenyl)pyridazin-3-yl)methyl)amino)-1-methylpiperidin-2-one], the 50% inhibitory concentration (IC50) lay in the range of 1000 to 3000 nM in the assay on THP-1 and 500 to 1000 nM in assay [1].

Consider `Cc1cc(C(F)(F)F)cc(O)c1-c1ccc(CNC2CC3(COC3)C2)nn1` [Compound 2, 2-(6-(((2-Oxaspiro[3.3]heptan-6-yl)amino)methyl)pyridazin-3-yl)-3-methyl-5-(trifluoromethyl)phenol], for which the IC50 (with THP-1; in assay [1]) was 500 to 1000 nM throughout.

In the case of `Cc1cc([N+](=O)[O-])cc(O)c1-c1ccc(CNC2CCOCC2)nn1` [Compound 57, 3-Methyl-5-nitro-2-(6-(((tetrahydro-2H-pyran-4-yl)amino)methyl)pyridazin-3-yl)phenol hydrochloride], the IC50 in the assay on THP-1 is 3000 to 10000 nM; in assay [1] it was 1000 to 3000 nM.

In the case of `Cc1cc(C2CC2)cc(O)c1-c1ccc(CNC2CCOCC2)nn1` [Compound 48, 5-Cyclopropyl-3-methyl-2-(6-(((tetrahydro-2H-pyran-4-yl)amino)methyl)pyridazin-3-yl)phenol], the IC50 (with THP-1; in assay [1]) was 1000 to 3000 nM throughout.

Regarding `Cc1cc(C(F)(F)F)cc(O)c1-c1ccc(Cn2ccn(C)c2=N)nn1` [Compound 123], the values for the IC50 (with THP-1; in assay [1]) were 500 to 1000 nM and 1000 to 3000 nM, respectively.

Turning to `Cc1cc(C(F)(F)F)cc(O)c1-c1ccc(CN[C@H]2CC[C@](C)(O)CC2)nn1` [Compound 152], the IC50 (in the assay on THP-1; in assay [1]) was 1000 to 3000 nM throughout.

Regarding `Cc1cc(C(F)(F)F)cc(O)c1-c1ccc(CNCCN(C)C)nn1` [Compound 116], the IC50 (in the assay with THP-1; in assay [1]) was 3000 to 10000 nM each time.

Take `Cc1cn(Cc2ccc(-c3c(C)cc(C(F)(F)F)cc3O)nn2)c(=N)s1` [Compound 125]: the IC50 (in the assay with THP-1; in assay [1]) was 1000 to 3000 nM in each case.

`CC(=O)N1CCC(OCc2ccc(-c3c(C)cc(Cl)cc3O)nn2)C1` (stereo not shown) [Compound 68, 1-(3-((6-(4-Chloro-2-hydroxy-6-methylphenyl)pyridazin-3-yl)methoxy)pyrrolidin-1-yl)ethan-1-one]: the IC50 (with THP-1; in assay [1]) was 500 to 1000 nM throughout.

On to `Cc1cc(C(F)(F)F)cc(O)c1-c1ccc(CN2CCOCC2)nn1` [Compound 130], for which the 50% inhibitory concentration (IC50) (in the assay on THP-1; in assay [1]) was 500 to 1000 nM each time.

Consider `Cc1cc(C(F)(F)F)cc(O)c1-c1ccc(CNCC2CCCO2)nn1` (stereo not shown) [Compound 106], for which the figures for the IC50 (in the assay with THP-1; in assay [1]) were 3000 to 10000 nM and 1000 to 3000 nM, respectively.

As for `Cc1cc(Cl)cc(O)c1-c1ccc(CN2CCOC2=O)nn1` [Compound 67, 3-((6-(4-Chloro-2-hydroxy-6-methylphenyl)pyridazin-3-yl)methyl)oxazolidin-2-one], the 50% inhibitory concentration (IC50) (with THP-1; in assay [1]) was under 500 nM throughout.

As to `Cc1cc(C(F)(F)F)cc(O)c1-c1ccc(CNC2CC3CCOC32)nn1` (stereo not shown) [Compound 4, 2-(6-(((2-Oxabicyclo[3.2.0]heptan-7-yl)amino)methyl)pyridazin-3-yl)-3-methyl-5-(trifluoromethyl)phenol], the IC50 (with THP-1; in assay [1]) was 1000 to 3000 nM throughout.

Consider `COC1CCC(NCc2ccc(-c3c(C)cc(C(F)(F)F)cc3O)nn2)CC1` (stereo not shown) [Compound 140], for which the IC50 with THP-1 is 500 to 1000 nM; in assay [1], under 500 nM.

As to `Cc1cc(C(F)(F)F)cc(O)c1-c1ccc(COC2CCN(C)CC2)nn1` [Compound 45, 3-Methyl-2-(6-(((1-methylpiperidin-4-yl)oxy)methyl)pyridazin-3-yl)-5-(trifluoromethyl)phenol hydrochloride], the IC50 (in the assay on THP-1; in assay [1]) was 1000 to 3000 nM throughout.

On to `Cc1cc(Cl)cc(O)c1-c1ccc(CN(C)[C@@H]2CCOC2)nn1` [Compound 58, (R)-5-Chloro-3-methyl-2-(6-((methyl(tetrahydrofuran-3-yl)amino)methyl)pyridazin-3-yl)phenol], for which the IC50 (in the assay on THP-1; in assay [1]) was 1000 to 3000 nM in each case.

Take `Cc1cc(C(F)(F)F)cc(O)c1-c1ccc(CNC2CCCC2)nn1` [Compound 101]: the IC50 was 500 to 1000 nM in the assay with THP-1 and under 500 nM in assay [1].

As to `COCC(=O)NCc1ccc(-c2c(C)cc(C(F)(F)F)cc2O)nn1` [Compound 8, N-((6-(2-Hydroxy-6-methyl-4-(trifluoromethyl)phenyl)pyridazin-3-yl)methyl)-2-methoxyacetamide], the half-maximal inhibitory concentration (IC50) lay in the range of 3000 to 10000 nM in the assay with THP-1 and 1000 to 3000 nM in assay [1].

Take `CC(=O)N1CCC(NCc2ccc(-c3c(C)cc(C(F)(F)F)cc3O)nn2)CC1` [Compound 142]: the IC50 is 500 to 1000 nM with THP-1 and under 500 nM in assay [1].

Turning to `Cc1cc(C(F)(F)F)cc(O)c1-c1ccc(CNCCC(C)(C)O)nn1` [Compound 118], the half-maximal inhibitory concentration (IC50) in the assay on THP-1 fell in the range of 3000 to 10000 nM; in assay [1] it was 1000 to 3000 nM.

Consider `Cc1c(C(F)(F)F)ccc(-c2ccc(CNC3CCOCC3)nn2)c1O` [Compound 9, 2-Methyl-6-(6-(((tetrahydro-2H-pyran-4-yl)amino)methyl)pyridazin-3-yl)-3-(trifluoromethyl)phenol], for which the IC50 (in the assay with THP-1; in assay [1]) was at least 10000 nM each time.

For the compound `Cc1cc(C(F)(F)F)cc(O)c1-c1ccc(CNc2ccccn2)nn1` [Compound 78, 3-Methyl-2-(6-{[(pyridin-2-yl)amino]methyl}pyridazin-3-yl)-5-(trifluoromethyl)phenol], the IC50 (in the assay on THP-1; in assay [1]) was at least 10000 nM in each case.

Turning to `Cc1cc(C(F)(F)F)cc(O)c1-c1ccc(CNC2CCCCC2)nn1` [Compound 100], the IC50 (in the assay on THP-1; in assay [1]) was 1000 to 3000 nM each time.

As for `Cc1cc(C(F)(F)F)cc(O)c1-c1ccc(CNCc2cnn(C)c2)nn1` [Compound 128], the concentration for half-maximal inhibition (IC50) (in the assay with THP-1; in assay [1]) was 1000 to 3000 nM each time.
